Test results from patent US9366676B2, “Fluorescent chemical compounds having high selectivity for double stranded DNA, and methods for their use” (LIFE TECHNOLOGIES CORPORATION, priority 2005, dated 2016).

Assays:
Jurkat cells = test: Flow cytometry with induced apoptosis cells (apoptosis time course); type: cell-based, human
Procedure: Live Jurkat cells were split into 13 samples and each cell split was suspended in complete RMPI/10% FBS. Samples was treated with 10 μM Camptothecin in DMSO to induce apoptosis, or treated with DMSO alone to act as a control. Treatment and control time was 1, 2, 3, 4, 5, and 6 hours, and a time zero point. The cell suspensions were then incubated at 37° C./5% CO2 for a designated time. This type of experiment is sometimes called an “apoptosis time course”. Each split was washed once in complete RPMI media/10% Fetal Bovine Serum (FBS) and resuspended at 1×10^6 cells/mL in complete RPMI media with 10% FBS. […] A SYTOX® Blue stain vs compound (24) stain plot was made and a gate was made on compound (24) stain positive and SYTOX® Blue stain negative cells to gate out dead cells, and to ensure only live cells were analyzed. Fluorescence from the SYTOX® Blue stain was collected using 405 nm excitation laser with 450/50 bandpass and compound (24) stain fluorescence was collected at 585/42 bandpass using the 488 nm excitation laser as well as collected at the same 585/42 bandpass using the 532 nm excitation laser. […] The data was further analyzed using ModFit LT Flow Cytometry Modeling Software from Verity Software House, Inc. to look at ratio of G2/G1 and the CV of G1 phase and the percent sub-G0 population (apoptotic population).

[1] = test system: calf thymus double stranded DNA and ribosomal RNA; test: Determination of DNA/RNA fluorescence ratios; type: binding; conditions: for DNA/RNA (fluorescence ratio): 65 ug/mL calf thymus dsDNA vs 65 ug/mL ribosomal RNA, 10 mM Tris, 1 mM EDTA pH 7.5, ratio of 1 = no selectivity; for ex/em: emission: emission value, second number of ex/em cell; for ex/em: excitation: excitation value, first number of ex/em cell
Procedure: The tested compound was dissolved as a stock solution in DMSO at a concentration of about 0.1-1.0 mg/mL. The exact concentration is not critical. Three tubes are prepared, each containing the same 1-20 uL of stock solution. The first tube contained 10 mM Tris, 1 mM EDTA (pH 7.5) buffer; the second tube contained buffer and 65 ug/mL calf thymus double stranded DNA; and the third tube contained buffer and 65 ug/mL ribosomal RNA. The tubes were incubated at room temperature for 10-15 minutes with protection from light.
In some cases, it was necessary to dilute the sample to keep the fluorescence signal on-scale. In these cases, all three samples were diluted to the same degree. The ratio of the fluorescence of the compound in the presence of DNA and RNA was determined.
The following compounds were selected as representative of the inventive class of compounds. The fluorescence values in the presence of DNA and RNA were determined as described in the previous Example. […] A ratio of 1 would indicate no selectivity. Excitation and emission values are in nm

[2] = test system: Jurkat cells (human T-lymphocyte); test: Flow cytometry cell cycle staining, live Jurkat cells; type: cell-based; conditions: 5 μM, 37° C., 60 minutes, ModFit
Procedure: Live Jurkat cells (human T-lymphocyte) were suspended at 1×10^6 cells/ml in RPMI media with 10% Fetal Bovine Serum (FBS). 5 μM Compound (20) was added to one mL cell suspension, and incubated at 37° C. for 60 minutes protected from light. Cells were processed using a Becton Dickinson (BD) LSRII Flow Cytometer. A Forward Scatter (FS) vs Side Scatter (SS) dual parameter plot was used to gate main cell population. On gated cells, a dual-parameter plot of Fluorescence-Width vs Fluorescence-Area was used for single cell discrimination gating. Single color fluorescence was collected at 530/30 bandpass using the 488 nm excitation laser, collecting 30,000 events at flow rate of about 200 events/second. The data was further analyzed using ModFit LT Flow Cytometry Modeling Software from Verity Software House, Inc. to determine the ratio of G2/G1 and the CV of G1 phase.

double stranded DNA = conditions: cited from earlier work
DNA = conditions: cited from earlier work

Row | ex/em: emission [1] [nm] | ex/em: excitation [1] [nm] | Compound | DNA/RNA (fluorescence ratio) [1] | other results
1 |  |  | CC[C@@]1(O)C(=O)OCc2c1cc1n(c2=O)Cc2cc3ccccc3nc2-1 [Camptothecin, reference compound] |  | induction time at which sub-G0 population begins to show (Jurkat cells; 10 μM Camptothecin in DMSO, live Jurkat, time course 0-6 hours): 3 h
2 | 536 | 510 | COc1cccc(OC)c1-c1ccc2c(c1)sc(C=C1C=C(N3CCN(C)CC3)N(Cc3ccccc3)c3ccccc31)[n+]2C [Compound 20] | 4 | G1-phase ([2]; 488 nm excitation, 530/30 bandpass): 47.08%; G2-phase [2]: 6.25%; G2/G1 ratio [2]: 1.83; S-phase [2]: 46.67%
3 | 570 | 520 | COc1cccc(OC)c1-c1ccc2c(c1)sc(C=C1C=C(SCCN(C)C)N(Cc3ccccc3)c3ccccc31)[n+]2C [Compound 24] | 4.6 | excitation maximum ([1]; Example 114): 520 nm; emission maximum ([1]; Example 114 (orange)): 569 nm; staining of sub-G0 (apoptotic) population (Jurkat cells; 10 μM, 37° C., 30 minutes, live Jurkat treated with 10 μM Camptothecin, 488 nm or 532 nm excitation): stains live cells for identification of a sub-G0 population in apoptotic cells which increases with time of induction
4 | 563 | 522 | CCN(CC)Cc1ccc(C2=CC(=Cc3sc4cc(-c5ccccc5)ccc4[n+]3C)c3ccccc3N2c2ccccc2)cc1 [Compound 91] | 1.5 | 
5 | 501 | 458 | C[n+]1c(C=C2C=CN(Cc3ccccc3)c3ccccc32)sc2cc(-c3ccccc3)ccc21 [Compound 92] | 1 | 
6 | 514 | 466 | C[n+]1c(C=C2C=CN(Cc3ccccc3)C(c3ccccc3)=C2)sc2cc(-c3ccccc3)ccc21 [Compound 93] | 1.5 | 
7 | 530 | 513 | CC(=O)Nc1ccccc1-c1ccc2c(c1)sc(C=C1C=CN(Cc3ccccc3)c3ccccc31)[n+]2C [Compound 94] | 2.1 | 
8 | 591 | 550 | C[n+]1c(C=C2C=CN(Cc3ccccc3)c3ccccc32)sc2cc(-c3cc4ccccc4s3)ccc21 [Compound 95] | 1.9 | 
9 | 555 | 527 | C[n+]1c(C=C2C=CN(Cc3ccccc3)c3ccccc32)sc2cc(-c3cccs3)ccc21 [Compound 96] | 8 | 
10 | 538 | 513 | C[n+]1c(C=C2C=CN(Cc3ccccc3)c3ccccc32)sc2cc(-c3cccnc3)ccc21 [Compound 97] | 3.7 | 
11 | 534 | 511 | C[n+]1cccc(-c2ccc3c(c2)sc(C=C2C=CN(Cc4ccccc4)c4ccccc42)[n+]3C)c1 [Compound 99] | 1.3 | 
12 | 551 | 513 | C[n+]1c(C=C2C=CN(Cc3ccccc3)c3ccccc32)sc2cc(-c3ccc(O)cc3)ccc21 [Compound 100] | 8.1 | 
13 | 527 | 503 | CCCN(CCCN(C)C)C1=CC(=Cc2sc3cc(C(COC)COC)ccc3[n+]2C)c2ccccc2N1Cc1ccccc1 [Compound 101] | 3 | 
14 | 515 | 475 | COc1cccc(OC)c1-c1ccc2c(c1)sc(C=C1C=CN(Cc3ccccc3)C(SCCCN(C)C)=C1)[n+]2C [Compound 102] | 3.3 | 
15 | 537 | 507 | C[n+]1c(C=CC=C2C=CN(Cc3ccccc3)c3ccccc32)sc2cc(-c3ccccc3)ccc21 [Compound 103] | 3.1 | 
16 | 666 | 652 | CCOC(=O)CCCOc1cccc(CN2C=CC(=CC=Cc3sc4cc(-c5ccccc5)ccc4[n+]3C)c3ccccc32)c1 [Compound 104] | 9 | 
17 | 525 | 496 | COc1cccc(OC)c1-c1ccc2c(c1)sc(/C=C1\C=C(N(C)CCCC(=O)O)N(Cc3ccccc3)c3ccccc31)[n+]2C [Compound 109] | 121 | 
18 | 527 | 497 | COc1cccc(OC)c1-c1ccc2c(c1)sc(/C=C1\C=C(N(C)CCCC(=O)NCCOCCOCCOCCO)N(Cc3ccccc3)c3ccccc31)[n+]2C [Compound 111] | 64 | 
19 | 541 | 500 | CCOC(=O)CCCOc1cccc(CN2C=C/C(=C\c3sc4cc(-c5c(OC)cccc5OC)ccc4[n+]3C)c3ccccc32)c1 [Compound 112] | 191 | 
20 |  |  | CN(C)CCCN(CCCN(C)C)c1cc(C=C2Sc3ccccc3N2C)c2ccccc2[n+]1-c1ccccc1 [PicoGreen] |  | fluorescence enhancement upon binding to double stranded DNA (double stranded DNA): greater than 1000 fold
21 |  |  | CCCN(CCCN(C)C)c1cc(/C=C2/Sc3ccccc3N2C)c2ccccc2[n+]1-c1ccccc1 [SYBR Green I] |  | fluorescence enhancement upon binding to DNA, relative to ethidium bromide (DNA): at least 10 fold; fluorescence quantum yield (DNA): about 0.8
22 | 530 | 510 | CN1C(=Cc2cc[n+](C)c3ccccc23)Sc2ccccc21 [Thiazole orange, reference compound] | 1 | 
